In US7309497B2, “Injectable pharmaceutical composition for systematic administration of pharmacologically active ingredients” (Schwarz Pharma AG, priority 2000, dated 2007):
Like-named read-outs stand apart in the source and are kept apart here. Blank lines part the entries; values can stand above or below the compound they belong to.

Tests used:
[1] = in vivo; cited from earlier work
[2] = Bioavailability and release of N-0923 from the depot composition per the invention; format: in vivo
Description: The composition according to the invention is particularly preferred for the administration of N-0923 hydrochloride, and especially so in a formulation with crystalline N-0923 hydrochloride. The latter can be produced for instance as described in U.S. Pat. No. 4,564,628.

[3] = intravenously injected aqueous solutions; tests with animals; cited from earlier work
[4] = subcutaneous administration; tests with animals; cited from earlier work
[5] = distinct first-pass effect; cited from earlier work
[6] = in vivo; cited from earlier work; remark: listed apart in the source
[7] = cited from earlier work

Compound: O=c1[nH]cc(F)c(=O)[nH]1 [5-fluorouracil]
half-time value [1]: 10 to 20 min

relationship of plasma agent levels to the dose introduced in the body ([2]; depot composition): linear relationship | time over which the active agent is released from the depots in the body in a therapeutically effective amount ([2]; depot composition): over 48 hours | bioavailability ([2]; plasma, depot composition with N-0923, read-out: bioavailability of the pharmaceutical composition per the invention): ~70%
Compound: CCCN(CCc1cccs1)[C@H]1CCc2c(O)cccc2C1 [N-0923, S(−)-2-(N-propyl-N-2-thienylerhyl-amino)-5-hyroxytetralin]
half-time value [3]: 52 min | half-time value [4]: 60 to 70 min | bioavailability after oral administration [5]: about 0.5%

Compound: proinsulin C-peptide
half-time value [6]: about 30 minutes

Compound: N[C@@H](Cc1ccc(O)c(O)c1)C(=O)O [levodopa]
half-time in the plasma [7]: 1 to 3 h
